Laboratory results published in PubChem BioAssay AID248 (DTP/NCI, 2004).
“And” between values parts separate entries of the source, which are not always exact repeats. Equal values may be shown once. Toxic doses and inconclusive results are not listed. Cut-off read from the data, not from the text of the source: active = T/C of 150% or more; inactive = T/C below 125%.

Test system: L1210 leukemia ip in BDF1 mice, survival T/C
Test: NCI In Vivo Anticancer Drug Screen. Data for tumor model L1210 Leukemia (intraperitoneal) in B6D2F1 (BDF1) mice
Settings: endpoint: mean survival time, higher = longer survival
In short: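 Tumor was transplanted into mice, which were then dosed with test compound or vehicle alone. Survival was recorded for each group, and the treated figure was expressed relative to the control figure.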

[1] = dose: 100.0 mg/kg/injection, schedule: Q04DX003 (ip), vehicle: saline with Tween-80
[2] = dose: 400.0 mg/kg/injection, schedule: Q01DX001 (ip), vehicle: Klucel (hydroxypropylcellulose) (HPC)
[3] = dose: 25.0 mg/kg/injection, schedule: Q01DX009 (ip), vehicle: saline
[4] = dose: 200.0 mg/kg/injection, schedule: Q04DX003 (ip), vehicle: saline with Tween-80
[5] = dose: 400.0 mg/kg/injection, schedule: Q04DX003 (ip), vehicle: saline with Tween-80
[6] = dose: 100.0 mg/kg/injection, schedule: Q04DX003 (ip), vehicle: saline
[7] = dose: 200.0 mg/kg/injection, schedule: Q04DX003 (ip), vehicle: saline
[8] = dose: 400.0 mg/kg/injection, schedule: Q04DX003 (ip), vehicle: saline
[9] = dose: 400.0 mg/kg/injection, schedule: Q04DX003 (ip), vehicle: Klucel (hydroxypropylcellulose) (HPC)
[10] = dose: 100.0 mg/kg/injection, schedule: Q01DX009 (ip), vehicle: saline with Tween-80
[11] = dose: 200.0 mg/kg/injection, schedule: Q01DX009 (ip), vehicle: saline with Tween-80
[12] = dose: 400.0 mg/kg/injection, schedule: Q01DX009 (ip), vehicle: saline with Tween-80
[13] = dose: 100.0 mg/kg/injection, schedule: Q01DX009 (ip), vehicle: Klucel (hydroxypropylcellulose) (HPC)
[14] = dose: 100.0 mg/kg/injection, schedule: Q04DX003 (ip), vehicle: Klucel (hydroxypropylcellulose) (HPC)
[15] = dose: 200.0 mg/kg/injection, schedule: Q01DX009 (ip), vehicle: Klucel (hydroxypropylcellulose) (HPC)
[16] = dose: 200.0 mg/kg/injection, schedule: Q04DX003 (ip), vehicle: Klucel (hydroxypropylcellulose) (HPC)
[17] = dose: 400.0 mg/kg/injection, schedule: Q01DX009 (ip), vehicle: Klucel (hydroxypropylcellulose) (HPC)

Measured: T/C

Cn1nnc(N/N=C/c2ccccc2)n1
inactive: dose: 6.25 mg/kg/injection, schedule: Q04DX003 (ip), vehicle: saline with Tween-80 100 % of control | dose: 12.5 mg/kg/injection, schedule: Q04DX003 (ip), vehicle: saline with Tween-80 107 % of control | dose: 25.0 mg/kg/injection, schedule: Q01DX009 (ip), vehicle: saline with Tween-80 94 % of control | dose: 25.0 mg/kg/injection, schedule: Q04DX003 (ip), vehicle: saline with Tween-80 94 % of control and 109 % of control | dose: 50.0 mg/kg/injection, schedule: Q04DX003 (ip), vehicle: saline with Tween-80 95 % of control | [1] 88 % of control

CCCCCCCCCCCCCCCCOc1ccc(Sc2ccc([N+](=O)[O-])cc2)cc1
inactive: [2] 87 % of control

CN(C)/N=C/c1cccc[n+]1C
inactive: dose: 6.25 mg/kg/injection, schedule: Q01DX009 (ip), vehicle: saline 102 % of control | dose: 12.5 mg/kg/injection, schedule: Q01DX009 (ip), vehicle: saline 106 % of control | [3] 115 % of control

CCOC(=O)CCC1(C(=O)OC)C(=O)CCCCC/C=C/1C(=O)OC (stereo not drawn)
inactive: [1] 99 % of control | [4] 101 % of control | [5] 106 % of control

CCOC(=O)C(=O)Nc1ccccc1-c1ccccc1
inactive: [6] 102 % of control | [7] 98 % of control | [8] 101 % of control

O=C1NC2(CCCC2)C(=O)N2CCCC12 (stereo not drawn)
inactive: [9] 97 % of control

O=P(O)(O)OCC1OC(O)(COP(=O)(O)O)C(O)C1O (stereo not drawn)
inactive: dose: 100.0 mg/kg/injection, schedule: Q04DX002 (ip), vehicle: saline 100 % of control | dose: 200.0 mg/kg/injection, schedule: Q04DX002 (ip), vehicle: saline 106 % of control | dose: 400.0 mg/kg/injection, schedule: Q04DX002 (ip), vehicle: saline 95 % of control

N#CCN1CCOCC1
inactive: [3] 122 % of control | dose: 50.0 mg/kg/injection, schedule: Q01DX009 (ip), vehicle: saline 101 % of control | dose: 100.0 mg/kg/injection, schedule: Q01DX009 (ip), vehicle: saline 97 % of control and 98 % of control | [6] 103 % of control | dose: 200.0 mg/kg/injection, schedule: Q01DX009 (ip), vehicle: saline 110 % of control | [7] 97 % of control

Cc1cccc(CC(O)(CC(O)(c2ccccc2)c2ccccc2)c2ccccc2)c1 (stereo not drawn)
inactive: dose: 100.0 mg/kg/injection, schedule: Q04DX003 (ip), vehicle: acetone 96 % of control | dose: 200.0 mg/kg/injection, schedule: Q04DX003 (ip), vehicle: acetone 98 % of control | dose: 400.0 mg/kg/injection, schedule: Q04DX003 (ip), vehicle: acetone 97 % of control

O=C1/C(=C/c2ccccc2)Cc2ccccc21
inactive: [10] 95 % of control | [1] 101 % of control | [11] 95 % of control | [4] 95 % of control | [12] 95 % of control | [5] 109 % of control

COC(=O)/C=C/c1ccc([N+](=O)[O-])cc1
inactive: [1] 94 % of control and 96 % of control | [4] 96 % of control and 97 % of control | [5] 92 % of control

OC1(C2CCC(C(F)(F)F)CC2)C2C=CC1CC2 (stereo not drawn)
inactive: dose: 75.0 mg/kg/injection, schedule: Q04DX002 (ip), vehicle: Klucel (hydroxypropylcellulose) (HPC) 93 % of control | dose: 150.0 mg/kg/injection, schedule: Q04DX002 (ip), vehicle: Klucel (hydroxypropylcellulose) (HPC) 93 % of control | dose: 300.0 mg/kg/injection, schedule: Q04DX002 (ip), vehicle: Klucel (hydroxypropylcellulose) (HPC) 100 % of control

O=C1C=CC(=O)C2=C1C1c3ccccc3C2([N+](=O)[O-])c2ccccc21
inactive: [13] 100 % of control | [14] 105 % of control | [15] 92 % of control | [16] 97 % of control | [7] 97 % of control | [17] 100 % of control | [9] 102 % of control | [8] 102 % of control

CCOc1ccc(/C=N/NS(=O)(=O)c2ccc(C)cc2)cc1
inactive: [13] 104 % of control | [14] 91 % of control | [15] 100 % of control | [16] 92 % of control | [17] 94 % of control | [9] 92 % of control

CCCCc1c(F)cccc1C(=O)O
inactive: dose: 12.5 mg/kg/injection, schedule: Q04DX003 (ip), vehicle: saline 101 % of control | dose: 25.0 mg/kg/injection, schedule: Q04DX003 (ip), vehicle: saline 108 % of control | dose: 50.0 mg/kg/injection, schedule: Q04DX003 (ip), vehicle: saline 87 % of control

CCCCCCCCCCC1CC2CCCC3CCC4CCCC1C4C32 (stereo not drawn)
inactive: dose: 100.0 mg/kg/injection, schedule: Q01DX001 (ip), vehicle: saline with Tween-80 95 % of control | dose: 200.0 mg/kg/injection, schedule: Q01DX001 (ip), vehicle: saline with Tween-80 108 % of control | dose: 400.0 mg/kg/injection, schedule: Q01DX001 (ip), vehicle: saline with Tween-80 100 % of control

O=C(O)C1=C(C(=O)O)C2CCCC3C4CCCCC4N(N1)C23 (stereo not drawn)
inactive: dose: 75.0 mg/kg/injection, schedule: Q01DX001 (ip), vehicle: acetone 117 % of control | dose: 150.0 mg/kg/injection, schedule: Q01DX001 (ip), vehicle: acetone 104 % of control | dose: 300.0 mg/kg/injection, schedule: Q01DX001 (ip), vehicle: acetone 118 % of control

CC(C)OC(=O)Nc1ccc(Cl)cc1Cl
inactive: [14] 97 % of control | [16] 108 % of control | [9] 108 % of control

Cc1ccc(S(=O)(=O)N(C)c2ccc(CC(=O)O)cc2)cc1
inactive: [14] 97 % of control | [16] 95 % of control | [9] 95 % of control

COc1ccc(C2(OC)Oc3ccccc3C(=O)C2(O)O)cc1 (stereo not drawn)
inactive: dose: 50.0 mg/kg/injection, schedule: Q01DX001 (ip), vehicle: saline 101 % of control | dose: 100.0 mg/kg/injection, schedule: Q01DX001 (ip), vehicle: saline 104 % of control | dose: 200.0 mg/kg/injection, schedule: Q01DX001 (ip), vehicle: saline 101 % of control | dose: 400.0 mg/kg/injection, schedule: Q01DX001 (ip), vehicle: saline 104 % of control

C#CC(=O)OC
inactive: dose: 0.78 mg/kg/injection, schedule: Q01DX009 (ip), vehicle: saline 103 % of control | dose: 1.56 mg/kg/injection, schedule: Q01DX009 (ip), vehicle: saline 103 % of control | dose: 1.56 mg/kg/injection, schedule: Q04DX003 (ip), vehicle: saline 103 % of control | dose: 3.12 mg/kg/injection, schedule: Q01DX009 (ip), vehicle: saline 97 % of control | dose: 3.12 mg/kg/injection, schedule: Q04DX003 (ip), vehicle: saline 95 % of control | dose: 4.6 mg/kg/injection, schedule: Q01DX009 (ip), vehicle: saline 98 % of control | dose: 6.25 mg/kg/injection, schedule: Q04DX003 (ip), vehicle: saline 94 % of control | dose: 7.0 mg/kg/injection, schedule: Q01DX009 (ip), vehicle: saline 93 % of control | dose: 10.0 mg/kg/injection, schedule: Q01DX009 (ip), vehicle: saline 101 % of control

CCC(=O)c1ccc(OCC(O)CN2CCN(c3ccccc3OC)CC2)cc1 (stereo not drawn)
inactive: [1] 96 % of control | [4] 96 % of control | [5] 103 % of control

O=C(O)c1ccccc1C(=O)OC1CC2CCC1C2 (stereo not drawn)
inactive: dose: 100.0 mg/kg/injection, schedule: Q01DX001 (ip), vehicle: Klucel (hydroxypropylcellulose) (HPC) 100 % of control | dose: 200.0 mg/kg/injection, schedule: Q01DX001 (ip), vehicle: Klucel (hydroxypropylcellulose) (HPC) 94 % of control | [2] 98 % of control

Cc1ccc(Cl)cc1NC(=O)N(C)Cc1ccccc1
inactive: [10] 95 % of control and 104 % of control | dose: 100.0 mg/kg/injection, schedule: Q04DX002 (ip), vehicle: saline with Tween-80 94 % of control and 120 % of control | [1] 100 % of control | [11] 97 % of control and 104 % of control | dose: 200.0 mg/kg/injection, schedule: Q04DX002 (ip), vehicle: saline with Tween-80 98 % of control and 105 % of control | [4] 105 % of control | [12] 97 % of control and 108 % of control | dose: 400.0 mg/kg/injection, schedule: Q04DX002 (ip), vehicle: saline with Tween-80 98 % of control and 86 % of control | [5] 108 % of control
